# “Also recorded” adds a separate entry of the source. Like-named read-outs stand apart in the source and are kept apart here.
# Experiments:
# [1] = Pharmacokinetics of Compound BB, single and repeat oral dose in CB6F1 female mice; assay type: in vivo, mouse; details: CB6F1 female mice, 2, 7.5, 15 mg/kg PO
# Description: Animals were weighed daily prior to dosing. […] On subsequent dosing days, the animals' condition was noted prior to dosing; the animals were observed within 4 hours of dosing, and at the end of the day.
# Samples were collected at pre-dose 0.25, 0.5, 1, 2, 4, 6 and 24 h following the first dose on day 1 and pre-dose (trough), 0.25, 0.5, 1, 2, 4, 6 and 24 h following the final dose on day 3. Animals received a single oral dose daily for 3 consecutive days. Blood was collected by retro-orbital bleeding for all time points on day 1. All other blood sampling was collected by a cardiac puncture. Blood was collected into K2EDTA tubes and placed on wet ice. Within 15 min of collection, the sample was centrifuged at 10,000 rpm at 4° C. for 10 min in a bench top centrifuge and the plasma transferred to a new microcentrifuge tube.
# [2] = test system: LPS-induced neutrophil influx into BALF; assay: LPS-induced neutrophilia in rats, oral administration; assay type: in vivo; details: rat, p.o., 4 hours post-LPS challenge; dose dependent
# Description: This study also includes assessment of the exposure to the compounds in plasma and lung tissues.
# Ref C is budesonide p.o. The compound was administered p.o. and about 1 hour later, LPS was administered intra-tracheally and plasma was collected. After about 5 hours, plasma and bronchoalveolar lavage samples were collected.
# Farage cell line = assay: Combination isobologram in Farage cell line; assay type: cell-based; details: combination of Compound AA and Compound BB
# [3] = test system: CXCL12-induced T cell migration; assay: CXCL12-induced T-cell migration in CLL PBMCs (transwell); assay type: cell-based; details: Homo sapiens
# Description: Specifically, the material used were media (RPMI+0.5% Fetal Bovine Serum+Pen/Strep), total CLL PBMCs (AllCells), CoStar 24-transwell plates ([…]) #3421, BD Cytofix Fixation Buffer (#554655), BD FBS Stain Buffer (BD Biosciences, 554656), Deep 96-well plate (Axygen, P-2ML-SQ-C), rhCXCL12 (R&D, 350-NS-050), CD-19 APC Cy7 (BD #348794 1:20), CD3-PerCPCy5.5 (BD #560835, 1:20), CD5-PE (Biolegend #300608, 1:5), CD4-FITC (BD #561842, 1:20), and CD8-APC (BD #561953, 1:20).
# Total CLL human PBMCs were preincubated with Compound AA or BB in media for 45 minutes at 37° C. […] After the 45 minutes of compound preincubation, 500-750K CLL PBMCs were placed in the upper chamber of the transwell insert in a total volume of 100 uL. The cells were allowed to migrate for 2-4 hours at 37° C. The inserts were removed, and 550 uL media from lower chamber were transferred into a deep 96-well plate. The cells were spun at 1280 rpm for 5 minutes and flick media. The cells were resuspended in 400 uL BD Cytofixation buffer and incubated at RT for 10 minutes. 1 mL BD FBS stain buffer was added. The cells were spun at 1280 rpm and fixation buffer was disposed. The cells were resuspended in 100 uL of CD3,4,8,5,19 antibody cocktail made up in BD FBS stain buffer, which was then incubated at room temperature in the dark for 30-60 minutes. 1 mL BD FBS stain buffer was added to each well, which was then spun and flicked. The cells were resuspended in 150 uL FBS stain buffer and transferred to FACS tubes already containing 150 uL FBS stain buffer. Each sample was read on the FACS for 25 seconds. Gate on CD3, 4, 8 and CD19/5 subpopulations individually and calculate average migration index from triplicate samples. See e.g., Borge et al., haematologica 2010, 95(5): 768-775; de Rooij et al., Blood 2012, 119: 2590-2594.
# [4] = test system: CXCL12 stimulated pAKT S473 in T cells and monocytes; assay: Ex vivo whole blood CXCL12 stimulation of phospho-AKT, LLC-bearing mice; assay type: in vivo, mouse; details: LLC-bearing mice, 3, 7.5 or 15 mg/kg QD PO 12 days, 2 h post dose
# Description: C57 BL/6 Albino mice were implanted with 1×10^6 cells in a SC injection in the hind flank. The cell implant material was generated from brei that was passaged from mouse to mouse. Treatment started when tumors were between 160-180 mm^3. Mice were dosed for 12 days, QD, PO with vehicle, 15, 7.5 or 3 mg/kg. On day 12 mice were dosed and terminal blood was collected 2 h post dose by cardiac stick collection. Blood was placed in EDTA K2 collection tube and stored at room temp for PD analysis.
# Blood from each animal was aliquotted into 2 plates and warmed to 37° C. degrees. PBS was added to one plate as an unstimulated control. Murine CXCL12/SDF-1 was added to the second plate to a final concentration of 800 ng/mL and plate was returned to the 37° C. degree block. After 2 minutes of incubation, blood was lysed and fixed using paraformaldehyde. Samples were washed and frozen until flow cytometric analysis. T cells were gated using an antibody to CD3 and monocytes were gated as LY6G^− LY6C^high. Intracellular pAKT S473 was measured and percent positive was used for graphing.
# [5] = test system: collagen induced arthritis; assay: Rat collagen induced arthritis (CIA) model
# 4T1 breast cancer = assay: Subcutaneous 4T1 breast cancer model; assay type: in vivo
compound,measurement,setting,value
C[C@H](NC(=O)c1c(N)nn2cccnc12)c1cc2cccc(C#Cc3cnn(C)c3)c2c(=O)n1-c1ccccc1 [Compound BB],Stability in serum (24-hour time course of unbound plasma concentration),[1],good stability in serum
same,Neutrophil in bronchoalveolar lavage fluid (BALF),[2],reduced neutrophil in bronchoalveolar lavage fluid (BALF); also recorded: more profound effect on neutrophil influx
same,effect of the combination (isobologram),Farage cell line,synergistic effect
same,EC50,"[3]; T-cell subset CD3+, read-out: EC50 (nM), CXCL12 induced T-cell migration",17 ± 17 nM
same,EC50,"[3]; T-cell subset CD4+, read-out: EC50 (nM), CXCL12 induced T-cell migration",20 ± 21 nM
same,EC50,"[3]; T-cell subset CD8+, read-out: EC50 (nM), CXCL12 induced T-cell migration",13 ± 15 nM
same,EC50,"[3]; read-out: EC50, inhibition of CXCL12-induced CD3+ T cell migration (FIG. 8)",10 nM
same,Ex vivo whole blood CXCL12 stimulation of phospho-AKT in T cells (FIG. 58),[4],inhibits the ex vivo whole blood stimulation of phosphor-AKT in T cells
same,Ex vivo whole blood CXCL12 stimulation of phospho-AKT in monocytes (FIG. 59),[4],inhibits the ex vivo whole blood stimulation of phosphor-AKT in monocytes
same,ED50,[5]; Rattus norvegicus,2.13 mg/kg
same,Mean ankle diameter (FIG. 1),"[5]; rat CIA, day 9 to day 17",has therapeutic effects
same,tumor growth,"4T1 breast cancer; co-administration with docetaxel, paclitaxel, or 5-FU",further reduction in tumor growth
same,activity in subcutaneous 4T1 breast cancer model,4T1 breast cancer; single agent,single agent activity
